The results in this text go back to patent US20250186408A1, “TREATMENT OF PHARMACORESISTANT EPILEPSY” (Katholieke Universiteit Leuven, priority 2021, published 2025).

Like-named read-outs stand apart in the source and are kept apart here.

Series [1] can be described thus: in vivo. The following applies: male, NMRI, mouse, ip, 300 mg/kg.
Description: After the treatment period, blood samples were drawn from the tail veins, collected in Greiner MiniCollect K2EDTA tubes, and centrifuged twice for 5 min at 15,000 g to obtain plasma samples. Three volumes of acetonitrile were added to one volume of plasma to precipitate out the proteins. The samples were vortexed for 20 s and placed on ice. Immediately after, they were centrifuged at 5,000 g for 10 min and again at 10,000 g for 2 min. The resulting supernatants were transferred to Eppendorf tubes and centrifuged for 2 min at 10,000 g. Finally, the supernatants were collected for analysis by LC-MS/MS to determine the targeted compound concentration. Percentage recovery was determined as follows: known concentrations of the compound were spiked into the blank plasma and acetonitrile was added (3:1 ratio) to precipitate out the proteins. Samples were vortexed for 20 s and placed on ice. The resulting supernatants were isolated via centrifugation as described above. The targeted compounds were identified using LC-MS/MS to detect their characteristic ions. Plasma concentrations at each point were plotted as a function of time.
Brain samples were collected at the same time points as described for blood samples. Male NMRI mice were overdosed with dolethal via i.p. administration. Mice were perfused with 0.9% saline and brains were collected in Eppendorf tubes. Brains were weighed, whereafter 400 μL of acetonitrile was added to the samples. […] Homogenized samples were centrifuged at 5,000 g for 10 min and again at 10,000 g for 2 min. The resulting supernatants were transferred to Eppendorf tubes and centrifuged for 2 min at 10,000 g. Finally, the supernatants were collected for analysis by LC-MS/MS to determine the targeted compound concentration in the brain tissue.
The compound concentrations in mouse plasma and brain were determined by LC-MS/MS.
Series [2] concerns the target T1, HTR1A (Homo sapiens, UniProt P08908).
T1 sequence (P08908 1-422): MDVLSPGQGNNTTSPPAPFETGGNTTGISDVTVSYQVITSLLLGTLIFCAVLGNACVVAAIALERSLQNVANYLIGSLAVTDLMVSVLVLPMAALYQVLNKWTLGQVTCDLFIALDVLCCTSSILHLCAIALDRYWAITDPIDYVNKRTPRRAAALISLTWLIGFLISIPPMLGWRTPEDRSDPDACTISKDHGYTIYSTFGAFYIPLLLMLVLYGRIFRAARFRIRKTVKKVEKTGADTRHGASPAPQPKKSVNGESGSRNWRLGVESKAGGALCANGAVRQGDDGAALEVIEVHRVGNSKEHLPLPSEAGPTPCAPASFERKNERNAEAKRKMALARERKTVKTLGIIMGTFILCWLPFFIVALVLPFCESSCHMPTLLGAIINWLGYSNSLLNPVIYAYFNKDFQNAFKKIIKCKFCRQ
The series can be described thus: cAMP HTR1A Agonist. Conditions: for Emax: read-out: Max response.
Description: (§1) In vitro pharmacological profiling of compounds was done against 78 functional assays for 47 common off-targets (30) by Eurofins DiscoverX Corporation (Fremont, CA, USA) using their SAFETYscan E/IC50 ELECT service (Cat Ref 87-1003DR, Safety47 Panel Dose Response). […] Compounds were tested in a range of 10 concentrations, following a 3-fold serial dilution, starting from 10 μM.
(§2) cAMP Hunter cell lines were expanded from freezer stocks. Prior to testing, cells were seeded in a total volume of 20 μL into white walled 384-well microplates and incubated at 37° C. cAMP modulation was determined using the DiscoverX HitHunter cAMP XS+ assay. For Gs agonist determination, cells were incubated with sample to induce response. For Gi agonist determination, cells were incubated with sample in the presence of EC80 forskolin to induce response. For both conditions, media was aspirated from cells and replaced with 15 μL 2:1 HBSS/10 mM HEPES:cAMP XS+ Ab reagent. Intermediate dilution of sample stocks was performed to generate 4× sample in assay buffer (containing 4×EC80 forskolin in the case of antagonist determination). 5 μL of 4× sample was added to cells and incubated at 37° C. or room temperature (RT) for 30 or 60 min. Final assay vehicle concentration was 1%. For antagonist determination, cells were pre-incubated with sample followed by agonist challenge at the EC80 concentration. Media was aspirated from cells and replaced with 10 μL 1:1 HBSS/HEPES:cAMP XS+ Ab reagent. 5 μL of 4× compound was added to the cells and incubated at 37° C. or RT for 30 min. 5 μL of 4×EC80 agonist was added to the cells and incubated at 37° C. or RT for 30 or 60 min. For Gi coupled GPCRs, EC80 forskolin was included. […] Microplates were read following signal generation with a PerkinElmer Envision™ instrument for chemiluminescent signal detection. Compound activity was analyzed using CBIS data analysis suite (ChemInnovation, CA).

For series [3], the target named is ADRB1 (Homo sapiens, UniProt P08588). The series can be described thus: cAMP ADRB1 Agonist. The series is classed as cell-based. The following applies: for Emax: read-out: Max response. On the procedure:
cAMP Hunter cell lines were expanded from freezer stocks. […] For Gi agonist determination, cells were incubated with sample in the presence of EC80 forskolin to induce response. For both conditions, media was aspirated from cells and replaced with 15 μL 2:1 HBSS/10 mM HEPES:cAMP XS+ Ab reagent. […] 5 μL of 4× sample was added to cells and incubated at 37° C. or room temperature (RT) for 30 or 60 min. Final assay vehicle concentration was 1%. […] Media was aspirated from cells and replaced with 10 μL 1:1 HBSS/HEPES:cAMP XS+ Ab reagent. […] For Gi coupled GPCRs, EC80 forskolin was included. […] Compound activity was analyzed using CBIS data analysis suite (ChemInnovation, CA).

The target of series [4] is T2, CHRM1 (Homo sapiens, UniProt P11229).
T2 sequence (P11229 1-460): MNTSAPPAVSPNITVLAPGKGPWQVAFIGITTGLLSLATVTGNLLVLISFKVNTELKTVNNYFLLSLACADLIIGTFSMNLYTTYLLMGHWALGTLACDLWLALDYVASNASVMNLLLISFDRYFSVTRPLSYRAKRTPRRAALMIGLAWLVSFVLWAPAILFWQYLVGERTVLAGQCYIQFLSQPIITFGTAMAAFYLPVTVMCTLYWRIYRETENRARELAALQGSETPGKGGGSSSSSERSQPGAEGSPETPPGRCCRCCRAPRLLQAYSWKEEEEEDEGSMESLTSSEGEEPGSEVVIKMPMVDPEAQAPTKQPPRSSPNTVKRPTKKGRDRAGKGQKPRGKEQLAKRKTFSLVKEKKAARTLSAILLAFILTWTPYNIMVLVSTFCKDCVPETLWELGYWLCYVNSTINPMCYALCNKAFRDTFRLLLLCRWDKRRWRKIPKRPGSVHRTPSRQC
The series is described as follows: Calcium Flux CHRM1 Antagonist. The following applies: for Emax: read-out: Max response.
Description: (§3) In vitro pharmacological profiling of compounds was done against 78 functional assays for 47 common off-targets (30) by Eurofins DiscoverX Corporation (Fremont, CA, USA) using their SAFETYscan E/IC50 ELECT service (Cat Ref 87-1003DR, Safety47 Panel Dose Response). […] Compounds were tested in a range of 10 concentrations, following a 3-fold serial dilution, starting from 10 μM. The assays were performed utilizing the PathHunter enzyme fragment complementation (EFC) technology, FLIPR®-based cellular screening assays, and KINOMEscan kinase binding assays.
Prior to testing, cells (10,000 cells/well) were expanded from freezer stocks and seeded into a total volume of 50 μL into black walled, clear-bottom, Poly-D-lysine coated 384-well microplates and incubated at 37° C. […] Assays were performed in 1× dye loading buffer consisting of 1× Dye (DiscoverX, Calcium No Wash^PLUS kit, Catalog No. 90-0091), 1× Additive A and 2.5 mM Probenecid in HBSS/20 mM HEPES. Probenecid was prepared fresh. Prior to testing, media was aspirated from cells and replaced with 25 μL dye loading buffer. Cells were incubated for 45 min at 37° C. and then 20 min at RT. For agonist determination, 25 μL of 2× compound in HBSS/20 mM HEPES was added using a FLIPR Tetra (MDS). For antagonist determination, cells were pre-incubated with sample followed by agonist challenge at the EC80 concentration. 25 μL of 2× sample was added and cells were incubated for 30 min at RT in the dark to equilibrate plate temperature. After incubation, antagonist determination was initiated by addition of 25 μL of 1× compound with 3×EC80 agonist using FLIPR. For both agonist and antagonist formats, activity was measure on a FLIPR Tetra (MDS). Calcium mobilization was monitored for 2 min with a 5 sec baseline read.
FLIPR read—Area under the curve, was calculated for the entire 2 min read. Compound activity was analysed using CBIS data analysis suite (ChemInnovation, CA).

The target in series [5] is HRH1 (Homo sapiens, UniProt P35367). The series can be described thus: Calcium Flux HRH1 Agonist. In kind it is cell-based. Conditions: for Emax: read-out: Max response. The method, then: (≤0.2% DMSO concentration). Assays were performed in 1× dye loading buffer consisting of 1× Dye (DiscoverX, Calcium No Wash^PLUS kit, Catalog No. 90-0091), 1× Additive A and 2.5 mM Probenecid in HBSS/20 mM HEPES. Probenecid was prepared fresh. Prior to testing, media was aspirated from cells and replaced with 25 μL dye loading buffer. Cells were incubated for 45 min at 37° C. and then 20 min at RT. For agonist determination, 25 μL of 2× compound in HBSS/20 mM HEPES was added using a FLIPR Tetra (MDS). […] 25 μL of 2× sample was added and cells were incubated for 30 min at RT in the dark to equilibrate plate temperature. After incubation, antagonist determination was initiated by addition of 25 μL of 1× compound with 3×EC80 agonist using FLIPR. For both agonist and antagonist formats, activity was measure on a FLIPR Tetra (MDS). Calcium mobilization was monitored for 2 min with a 5 sec baseline read.
FLIPR read—Area under the curve, was calculated for the entire 2 min read.
For orientation: Calcium flux is commonly read through the fluorescence of an indicator in the cells.

The target of series [6] is HTR1B (Homo sapiens, UniProt P28222). The series is described as follows: cAMP HTR1B Agonist. Conditions: for Emax: read-out: Max response.
Description: as §1, §2
Series [7] has as its target CNR1 (Homo sapiens, UniProt P21554). The series can be described thus: cAMP CNR1 Agonist. Conditions: for Emax: read-out: Max response.
Description: as §3, §2
For series [8], the target named is T3, NMDAR (1A/2B) (Homo sapiens, UniProt Q05586+Q13224). The series can be described thus: Ion Channel NMDAR (1A/2B) Opener. The following applies: for Emax: Ion Channel NMDAR (1A/2B) Opener, read-out: Max response. The series is classed as cell-based.
Series [9] addresses T4, CHRM2 (Homo sapiens, UniProt P08172).
T4 sequence (P08172 1-466): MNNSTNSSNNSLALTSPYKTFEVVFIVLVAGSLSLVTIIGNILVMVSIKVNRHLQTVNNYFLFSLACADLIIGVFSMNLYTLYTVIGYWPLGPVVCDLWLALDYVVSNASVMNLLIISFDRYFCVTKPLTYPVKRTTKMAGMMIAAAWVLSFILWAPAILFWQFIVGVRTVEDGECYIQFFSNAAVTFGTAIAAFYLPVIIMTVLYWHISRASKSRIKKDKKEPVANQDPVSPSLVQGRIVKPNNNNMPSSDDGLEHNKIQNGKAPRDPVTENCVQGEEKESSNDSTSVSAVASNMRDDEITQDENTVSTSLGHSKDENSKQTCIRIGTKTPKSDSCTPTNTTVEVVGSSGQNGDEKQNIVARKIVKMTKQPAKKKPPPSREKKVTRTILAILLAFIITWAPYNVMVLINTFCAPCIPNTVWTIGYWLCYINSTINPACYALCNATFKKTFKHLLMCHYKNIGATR
The series can be described thus: cAMP CHRM2 Antagonist. The following applies: for Emax: read-out: Max response.
Description: as §1
cAMP Hunter cell lines were expanded from freezer stocks. Prior to testing, cells were seeded in a total volume of 20 μL into white walled 384-well microplates and incubated at 37° C. cAMP modulation was determined using the DiscoverX HitHunter cAMP XS+ assay. For Gs agonist determination, cells were incubated with sample to induce response. For Gi agonist determination, cells were incubated with sample in the presence of EC80 forskolin to induce response. For both conditions, media was aspirated from cells and replaced with 15 μL 2:1 HBSS/10 mM HEPES:cAMP XS+ Ab reagent. Intermediate dilution of sample stocks was performed to generate 4× sample in assay buffer (containing 4×EC80 forskolin in the case of antagonist determination). 5 μL of 4× sample was added to cells and incubated at 37° C. or room temperature (RT) for 30 or 60 min. Final assay vehicle concentration was 1%. For antagonist determination, cells were pre-incubated with sample followed by agonist challenge at the EC80 concentration. Media was aspirated from cells and replaced with 10 μL 1:1 HBSS/HEPES:cAMP XS+ Ab reagent. 5 μL of 4× compound was added to the cells and incubated at 37° C. or RT for 30 min. 5 μL of 4×EC80 agonist was added to the cells and incubated at 37° C. or RT for 30 or 60 min. For Gi coupled GPCRs, EC80 forskolin was included. […] Microplates were read following signal generation with a PerkinElmer Envision™ instrument for chemiluminescent signal detection. Compound activity was analyzed using CBIS data analysis suite (ChemInnovation, CA). For Gs agonist mode assays, percentage activity was calculated using the following equation:

The target of series [10] is T3, NMDAR (1A/2B). The series is described as follows: Ion Channel NMDAR (1A/2B) Blocker. In kind it is cell-based. Conditions: for Emax: Ion Channel NMDAR (1A/2B) Blocker, read-out: Max response.
The target of series [11] is DRD2S (Homo sapiens, UniProt P14416). The series is described as follows: cAMP DRD2S Antagonist. Conditions: for Emax: read-out: Max response.
Chain of DRD2S (P14416 1-414 isoform P14416-2): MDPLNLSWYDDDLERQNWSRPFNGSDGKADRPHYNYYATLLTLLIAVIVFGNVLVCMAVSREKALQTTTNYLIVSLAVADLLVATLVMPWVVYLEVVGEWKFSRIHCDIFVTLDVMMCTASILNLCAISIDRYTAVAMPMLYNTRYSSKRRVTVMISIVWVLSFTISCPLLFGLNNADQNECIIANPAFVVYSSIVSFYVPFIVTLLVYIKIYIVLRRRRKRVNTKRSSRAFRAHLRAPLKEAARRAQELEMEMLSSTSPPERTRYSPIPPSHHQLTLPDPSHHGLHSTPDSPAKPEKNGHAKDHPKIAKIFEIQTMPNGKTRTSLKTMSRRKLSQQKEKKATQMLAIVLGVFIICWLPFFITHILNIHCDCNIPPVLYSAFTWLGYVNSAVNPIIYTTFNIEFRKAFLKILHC
Description: as §1, §2

T3 sequence (Q13224 27-1484, other chains not shown): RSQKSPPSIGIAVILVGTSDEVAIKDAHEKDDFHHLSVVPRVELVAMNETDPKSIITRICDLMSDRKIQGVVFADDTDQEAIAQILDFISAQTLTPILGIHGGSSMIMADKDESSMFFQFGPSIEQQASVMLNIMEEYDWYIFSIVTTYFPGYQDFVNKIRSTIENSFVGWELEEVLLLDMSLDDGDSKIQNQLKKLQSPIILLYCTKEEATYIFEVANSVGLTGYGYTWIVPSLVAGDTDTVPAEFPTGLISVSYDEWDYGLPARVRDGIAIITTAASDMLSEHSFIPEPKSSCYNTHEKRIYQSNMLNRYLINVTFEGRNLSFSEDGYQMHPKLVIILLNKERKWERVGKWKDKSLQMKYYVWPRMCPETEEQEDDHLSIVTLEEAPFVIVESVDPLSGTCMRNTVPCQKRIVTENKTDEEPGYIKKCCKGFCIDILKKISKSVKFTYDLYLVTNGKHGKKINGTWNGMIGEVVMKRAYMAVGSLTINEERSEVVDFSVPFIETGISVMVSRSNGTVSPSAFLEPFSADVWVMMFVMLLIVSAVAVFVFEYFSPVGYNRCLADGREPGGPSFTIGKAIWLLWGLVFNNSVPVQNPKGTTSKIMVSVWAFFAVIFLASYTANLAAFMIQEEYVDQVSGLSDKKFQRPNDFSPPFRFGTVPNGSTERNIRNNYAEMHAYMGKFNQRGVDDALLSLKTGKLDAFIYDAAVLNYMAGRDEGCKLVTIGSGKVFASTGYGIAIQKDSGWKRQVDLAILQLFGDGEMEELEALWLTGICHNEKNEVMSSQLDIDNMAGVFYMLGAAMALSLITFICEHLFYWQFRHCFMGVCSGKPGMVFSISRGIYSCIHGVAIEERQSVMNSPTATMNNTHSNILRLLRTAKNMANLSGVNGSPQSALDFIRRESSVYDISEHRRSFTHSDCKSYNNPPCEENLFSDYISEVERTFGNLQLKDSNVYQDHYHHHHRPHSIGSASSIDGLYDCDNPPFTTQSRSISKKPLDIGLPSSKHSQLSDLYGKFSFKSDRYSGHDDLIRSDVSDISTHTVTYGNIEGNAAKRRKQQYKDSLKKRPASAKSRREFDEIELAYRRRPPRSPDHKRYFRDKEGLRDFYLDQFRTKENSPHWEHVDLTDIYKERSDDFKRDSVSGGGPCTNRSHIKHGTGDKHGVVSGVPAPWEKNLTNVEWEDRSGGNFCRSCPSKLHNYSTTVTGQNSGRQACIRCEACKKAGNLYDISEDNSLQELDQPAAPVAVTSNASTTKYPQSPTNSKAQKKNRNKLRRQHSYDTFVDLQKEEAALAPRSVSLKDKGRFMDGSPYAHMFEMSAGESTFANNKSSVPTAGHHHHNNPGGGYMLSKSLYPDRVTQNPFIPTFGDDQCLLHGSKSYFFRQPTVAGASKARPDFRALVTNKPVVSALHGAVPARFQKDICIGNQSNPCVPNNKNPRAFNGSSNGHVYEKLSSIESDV
Chain of HRH1 (P35367 whole entry): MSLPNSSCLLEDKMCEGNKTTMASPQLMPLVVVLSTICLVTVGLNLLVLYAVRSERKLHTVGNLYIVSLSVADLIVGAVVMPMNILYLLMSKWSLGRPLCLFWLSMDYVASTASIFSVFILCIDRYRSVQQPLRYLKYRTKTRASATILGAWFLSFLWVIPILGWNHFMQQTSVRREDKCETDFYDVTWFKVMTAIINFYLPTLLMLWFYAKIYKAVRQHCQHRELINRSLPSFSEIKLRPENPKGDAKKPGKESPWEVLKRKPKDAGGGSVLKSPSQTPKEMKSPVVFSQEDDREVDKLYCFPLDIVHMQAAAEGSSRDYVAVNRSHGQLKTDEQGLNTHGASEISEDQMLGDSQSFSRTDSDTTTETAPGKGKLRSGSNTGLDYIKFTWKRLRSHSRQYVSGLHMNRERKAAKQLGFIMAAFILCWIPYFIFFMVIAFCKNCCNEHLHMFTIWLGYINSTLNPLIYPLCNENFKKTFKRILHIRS
Chain of CNR1 (P21554 whole entry): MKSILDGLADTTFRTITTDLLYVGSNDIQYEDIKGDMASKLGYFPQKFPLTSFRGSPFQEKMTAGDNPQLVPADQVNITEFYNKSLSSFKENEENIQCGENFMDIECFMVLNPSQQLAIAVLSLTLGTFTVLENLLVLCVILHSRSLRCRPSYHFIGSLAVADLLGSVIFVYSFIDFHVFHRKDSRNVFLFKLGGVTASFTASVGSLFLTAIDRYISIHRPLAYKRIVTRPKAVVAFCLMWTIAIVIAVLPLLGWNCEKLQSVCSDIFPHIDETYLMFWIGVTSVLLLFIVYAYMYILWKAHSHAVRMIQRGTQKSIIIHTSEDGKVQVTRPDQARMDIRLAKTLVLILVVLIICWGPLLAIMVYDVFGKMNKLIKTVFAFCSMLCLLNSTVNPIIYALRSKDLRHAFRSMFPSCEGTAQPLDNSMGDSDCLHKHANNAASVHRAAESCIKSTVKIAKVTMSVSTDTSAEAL
Chain of HTR1B (P28222 whole entry): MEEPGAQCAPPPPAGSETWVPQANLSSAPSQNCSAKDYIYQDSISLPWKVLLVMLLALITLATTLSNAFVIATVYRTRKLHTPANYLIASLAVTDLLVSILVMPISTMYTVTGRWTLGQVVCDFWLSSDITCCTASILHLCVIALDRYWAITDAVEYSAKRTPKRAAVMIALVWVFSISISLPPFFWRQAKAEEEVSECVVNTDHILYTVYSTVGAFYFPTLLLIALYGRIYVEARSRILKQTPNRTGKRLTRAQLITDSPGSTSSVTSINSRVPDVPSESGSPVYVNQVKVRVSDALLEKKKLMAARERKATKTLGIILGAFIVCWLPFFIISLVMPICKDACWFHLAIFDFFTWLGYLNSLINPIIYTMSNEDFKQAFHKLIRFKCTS
Chain of ADRB1 (P08588 whole entry): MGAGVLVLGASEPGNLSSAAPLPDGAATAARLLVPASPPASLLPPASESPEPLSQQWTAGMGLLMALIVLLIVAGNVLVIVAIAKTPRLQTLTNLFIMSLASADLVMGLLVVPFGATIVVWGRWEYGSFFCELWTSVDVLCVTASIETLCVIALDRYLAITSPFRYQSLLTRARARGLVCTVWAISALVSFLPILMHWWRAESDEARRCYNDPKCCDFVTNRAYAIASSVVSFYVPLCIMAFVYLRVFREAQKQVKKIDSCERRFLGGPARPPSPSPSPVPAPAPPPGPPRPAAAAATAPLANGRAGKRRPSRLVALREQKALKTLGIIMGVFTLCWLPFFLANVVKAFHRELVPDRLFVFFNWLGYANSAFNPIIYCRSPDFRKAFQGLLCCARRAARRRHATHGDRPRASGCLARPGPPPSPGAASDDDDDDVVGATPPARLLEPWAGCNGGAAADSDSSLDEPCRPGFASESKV

As for `CC(C)(C)c1ccc(C#CC(O)c2ccccc2)cc1` (racemic) [Compound 3.3, rac-3-(4-(tert-butyl)phenyl)-1-phenylprop-2-yn-1-ol], the Cmax in series [1] (brain) came to 96000 ng/g; in series [1] (plasma), 62 µM. Further, the EC50 in series [2], in [3], in series [5], in [6], in [7] and in series [8] was more than 10 µM each time. Moreover, the Emax in series [2] came out at 0%; in series [3], 0.6%; in series [4], 0%; in [5] it was 0%; in series [6], 5.2%; in series [7], 9.8%. Besides, the Emax in series [8] stood at 0%; in [9], 90.1%; in [10] it was 0%; in [11], 63.5%. Also, the IC50 was more than 10 µM in series [4], 4.3 µM in [9], more than 10 µM in series [10] and 7.9 µM in series [11].

For `Clc1cccc(C#Cc2n[nH]c3ncccc23)c1` [Compound 10.1, 3-((3-chlorophenyl)ethynyl)-1H-pyrazolo[3,4-b]pyridine], the Cmax is 31000 ng/g in [1] (brain) and 27 µM in series [1] (plasma). Also, the EC50 in series [2] was more than 10 µM; in [3] (cAMP ADRB1 Agonist, read-out: RC50, result type EC50), more than 10 µM; in [5] (Calcium Flux HRH1 Agonist, read-out: RC50, result type EC50), more than 10 µM; in series [6], more than 10 µM; in series [7], more than 10 µM; in series [8] it was more than 10 µM. Besides, the Emax in series [2] stood at 9.1%; in series [3] (cAMP ADRB1 Agonist) it was 0%; in [4] it was 5.5%; in series [5] (Calcium Flux HRH1 Agonist) it was 0%; in [6], 9.3%; in series [7] it was 20.1%. The Emax in series [8], in series [9], in [10] and in [11] was 0% in each case. Besides, the IC50 in series [4], in [9], in series [10] and in series [11] was more than 10 µM in each case.

One may read the Cmax as the peak of the concentration-time curve. For orientation: EC50 means the concentration that produces a half-maximal response. What is called IC50 is the concentration that gives 50% inhibition.
